Reference: US20160122820A1, “Screening Method for Identifying Active Agents” (Avon Products, Inc., priority 2014, published 2016)

Test system: human skin
Conditions: for CYP7B1 gene expression (fold change): in vivo; for BIRC3 gene expression (fold change) / C1orf162 gene expression (fold change) / CCR2 gene expression (fold change) / CD1B gene expression (fold change) / CD2 gene expression (fold change) / CD53 gene expression (fold change) / CD86 gene expression (fold change) / CD226 gene expression (fold change) / CHRM4 gene expression (fold change) / CLEC7A gene expression (fold change) / COL3A1 gene expression (fold change) / COL5A2 gene expression (fold change) / COL6A6 gene expression (fold change) / COL14A1 gene expression (fold change) / CTSS gene expression (fold change) / CYBB gene expression (fold change) / CYTIP gene expression (fold change) / DIO2 gene expression (fold change) / EVI2B gene expression (fold change) / FAP gene expression (fold change) / FCGR2A gene expression (fold change) / FPR3 gene expression (fold change) / FYB gene expression (fold change) / GDPD2 gene expression (fold change) / GLIPR1 gene expression (fold change) / GMFG gene expression (fold change) / GPR174 gene expression (fold change) / GZMK gene expression (fold change) / HIST1H3A gene expression (fold change) / HLA-DPA1 gene expression (fold change) / HLA-DQA1 gene expression (fold change) / HLA-DRA gene expression (fold change) / IFI44L gene expression (fold change) / IFI44 gene expression (fold change) / IL33 gene expression (fold change) / IRF8 gene expression (fold change) / KIAA0226L gene expression (fold change) / KLRB1 gene expression (fold change) / LYZ gene expression (fold change) / MIRLET7C gene expression (fold change) / MNDA gene expression (fold change) / OCA2 gene expression (fold change) / PARP14 gene expression (fold change) / PCSK2 gene expression (fold change) / PLAC8 gene expression (fold change) / PLEK gene expression (fold change) / PTPRC gene expression (fold change) / RGS1 gene expression (fold change) / RNASE6 gene expression (fold change) / SAMD9 gene expression (fold change) / SELL gene expression (fold change) / SPP1 gene expression (fold change) / SRGN gene expression (fold change) / ST8SIA4 gene expression (fold change) / TPPP gene expression (fold change) / TRPM1 gene expression (fold change) / UGT2A1 gene expression (fold change) / VCAM1 gene expression (fold change): photodamaged forearm skin, 0.02% partially occlusive patch 30 days, 30-day biopsy relative to baseline, negative = downregulated

## CC1=C(/C=C/C(C)=C/C=C/C(C)=C/C(=O)O)C(C)(C)CCC1 [RA, retinoic acid]
  CYP7B1 gene expression (fold change): 1.320 fold change
  BIRC3 gene expression (fold change): 1.555 fold change
  C1orf162 gene expression (fold change): 1.356 fold change
  CCR2 gene expression (fold change): 1.658 fold change
  CD1B gene expression (fold change): 1.510 fold change
  CD2 gene expression (fold change): 1.339 fold change
  CD53 gene expression (fold change): 1.586 fold change
  CD86 gene expression (fold change): 1.468 fold change
  CD226 gene expression (fold change): 1.423 fold change
  CHRM4 gene expression (fold change): −1.326 fold change
  CLEC7A gene expression (fold change): 1.964 fold change
  COL3A1 gene expression (fold change): 1.443 fold change
  COL5A2 gene expression (fold change): 1.369 fold change
  COL6A6 gene expression (fold change): 2.091 fold change
  COL14A1 gene expression (fold change): 1.311 fold change
  CTSS gene expression (fold change): 1.302 fold change
  CYBB gene expression (fold change): 1.637 fold change
  CYTIP gene expression (fold change): 1.336 fold change
  DIO2 gene expression (fold change): −1.548 fold change
  EVI2B gene expression (fold change): 1.405 fold change
  FAP gene expression (fold change): 1.370 fold change
  FCGR2A gene expression (fold change): 1.366 fold change
  FPR3 gene expression (fold change): 1.439 fold change
  FYB gene expression (fold change): 1.483 fold change
  GDPD2 gene expression (fold change): −2.585 fold change
  GLIPR1 gene expression (fold change): 1.422 fold change
  GMFG gene expression (fold change): 1.358 fold change
  GPR174 gene expression (fold change): 1.411 fold change
  GZMK gene expression (fold change): 1.571 fold change
  HIST1H3A gene expression (fold change): 1.375 fold change
  HLA-DPA1 gene expression (fold change): 1.466 fold change
  HLA-DQA1 gene expression (fold change): 1.594 fold change
  HLA-DRA gene expression (fold change): 1.403 fold change
  IFI44L gene expression (fold change): 1.472 fold change
  IFI44 gene expression (fold change): 1.337 fold change
  IL33 gene expression (fold change): 1.587 fold change
  IRF8 gene expression (fold change): 1.725 fold change
  KIAA0226L gene expression (fold change): 1.307 fold change
  KLRB1 gene expression (fold change): 1.363 fold change
  LYZ gene expression (fold change): 2.271 fold change
  MIRLET7C gene expression (fold change): −1.319 fold change
  MNDA gene expression (fold change): 1.406 fold change
  OCA2 gene expression (fold change): −1.432 fold change
  PARP14 gene expression (fold change): 1.364 fold change
  PCSK2 gene expression (fold change): −1.825 fold change
  PLAC8 gene expression (fold change): 1.844 fold change
  PLEK gene expression (fold change): 1.667 fold change
  PTPRC gene expression (fold change): 1.606 fold change
  RGS1 gene expression (fold change): 1.503 fold change
  RNASE6 gene expression (fold change): 1.540 fold change
  SAMD9 gene expression (fold change): 5.339 fold change
  SELL gene expression (fold change): 1.691 fold change
  SPP1 gene expression (fold change): 1.416 fold change
  SRGN gene expression (fold change): 1.569 fold change
  ST8SIA4 gene expression (fold change): 1.389 fold change
  TPPP gene expression (fold change): −1.402 fold change
  TRPM1 gene expression (fold change): −1.306 fold change
  UGT2A1 gene expression (fold change): −1.369 fold change
  VCAM1 gene expression (fold change): 1.730 fold change

## CC1=C(/C=C/C(C)=C/C=C/C(C)=C/CO)C(C)(C)CCC1 [Retinol, retinol]
  CYP7B1 gene expression (fold change): 1.309 fold change
  BIRC3 gene expression (fold change): 1.815 fold change
  C1orf162 gene expression (fold change): 1.301 fold change
  CCR2 gene expression (fold change): 1.416 fold change
  CD1B gene expression (fold change): 1.844 fold change
  CD2 gene expression (fold change): 1.311 fold change
  CD53 gene expression (fold change): 1.483 fold change
  CD86 gene expression (fold change): 1.348 fold change
  CD226 gene expression (fold change): 1.396 fold change
  CHRM4 gene expression (fold change): −1.401 fold change
  CLEC7A gene expression (fold change): 1.502 fold change
  COL3A1 gene expression (fold change): 1.455 fold change
  COL5A2 gene expression (fold change): 1.380 fold change
  COL6A6 gene expression (fold change): 2.245 fold change
  COL14A1 gene expression (fold change): 1.408 fold change
  CTSS gene expression (fold change): 1.514 fold change
  CYBB gene expression (fold change): 1.413 fold change
  CYTIP gene expression (fold change): 1.481 fold change
  DIO2 gene expression (fold change): −1.384 fold change
  EVI2B gene expression (fold change): 1.323 fold change
  FAP gene expression (fold change): 1.518 fold change
  FCGR2A gene expression (fold change): 1.346 fold change
  FPR3 gene expression (fold change): 1.321 fold change
  FYB gene expression (fold change): 1.404 fold change
  GDPD2 gene expression (fold change): −1.363 fold change
  GLIPR1 gene expression (fold change): 1.450 fold change
  GMFG gene expression (fold change): 1.300 fold change
  GPR174 gene expression (fold change): 1.339 fold change
  GZMK gene expression (fold change): 1.402 fold change
  HIST1H3A gene expression (fold change): −1.363 fold change
  HLA-DPA1 gene expression (fold change): 1.364 fold change
  HLA-DQA1 gene expression (fold change): 1.378 fold change
  HLA-DRA gene expression (fold change): 1.439 fold change
  IFI44L gene expression (fold change): 1.320 fold change
  IFI44 gene expression (fold change): 1.429 fold change
  IL33 gene expression (fold change): 1.360 fold change
  IRF8 gene expression (fold change): 1.392 fold change
  KIAA0226L gene expression (fold change): 1.371 fold change
  KLRB1 gene expression (fold change): 1.377 fold change
  LYZ gene expression (fold change): 1.603 fold change
  MIRLET7C gene expression (fold change): 1.366 fold change
  MNDA gene expression (fold change): 1.805 fold change
  OCA2 gene expression (fold change): −1.334 fold change
  PARP14 gene expression (fold change): 1.356 fold change
  PCSK2 gene expression (fold change): −1.566 fold change
  PLAC8 gene expression (fold change): 1.434 fold change
  PLEK gene expression (fold change): 1.449 fold change
  PTPRC gene expression (fold change): 1.446 fold change
  RGS1 gene expression (fold change): 1.379 fold change
  RNASE6 gene expression (fold change): 1.452 fold change
  SAMD9 gene expression (fold change): 1.382 fold change
  SELL gene expression (fold change): 1.304 fold change
  SPP1 gene expression (fold change): 1.604 fold change
  SRGN gene expression (fold change): 1.353 fold change
  ST8SIA4 gene expression (fold change): 1.366 fold change
  TPPP gene expression (fold change): −1.328 fold change
  TRPM1 gene expression (fold change): −1.431 fold change
  UGT2A1 gene expression (fold change): −1.696 fold change
  VCAM1 gene expression (fold change): 1.357 fold change
